Literature values as cited in patent US20090005321A1, “Phenylazetidinone Derivatives” (Microbia, Inc., priority 2005, published 2009).

How the values were obtained:
[1] = in vivo
[2] = in humans

For `O=C1[C@H](CC[C@H](O)c2ccc(F)cc2)[C@@H](c2ccc(O)cc2)N1c1ccc(F)cc1` [ezetimibe, (3R,4S)-1-(4-fluorophenyl)-3-[(3S)-3-(4-fluorophenyl)-3-hydroxypropyl]-4-(4-hydroxyphenyl)azetidin-2-one], the “absorption of taurocholic acid” value [1] is listed as “does not inhibit” and the fat-soluble vitamin absorption [2] is listed as “does not appear to affect”.
